Structures can show the parent of a compound that is named as a salt. Where two headings read alike, the source gives them in different places.
Assays:
mice = conditions: mouse, in vivo, ip
[1] = test system: Infectious pancrease necrosis virus (IPNV); format: cell-based
in vitro [2] = conditions: human, hela s3 cells
in vitro [3] = conditions: rainbow trout, rtg-2 cells
[4] = test system: vaccinia virus Lister strain; format: in vivo, mice of the ICR strain; conditions: subcutaneous, 4 times first day, twice a day days 2-5, 10th day
[5] = test system: Newcastle disease virus I(1) strain; format: in vivo, embryonated chick egg; conditions: 104 hours incubation
Herpes virus = format: cell-based
[6] = test system: Vaccinia virus Lister strain; format: cell-based
[7] = test system: Newcastle disease virus Komarov strain; format: in vivo, embryonated chick egg; conditions: for MDT (difference from control): Komarov strain, 104 hours incubation
[8] = test system: Newcastle disease virus Sato strain; format: in vivo, embryonated chick egg; conditions: for MDT (difference from control): Sato strain, 104 hours incubation
[9] = test system: Influenza virus A0 /PR-8 strain; format: in vivo, mice of the ICR strain; conditions: intraperitoneal, twice a day for 3 days, mouse lung at 72 hours
[10] = test system: Newcastle disease virus (NDV) Miyadera strain; format: cell-based
[11] = test system: Influenza virus A-O/PR-8 strain; format: cell-based
[12] = test system: Newcastle disease virus Miyadera strain; format: in vivo, embryonated chick egg; conditions: for MDT (difference from control): Miyadera strain, 104 hours incubation
[13] = test system: Vesicular stomatitis virus (VSV); format: cell-based
[14] = test system: IPNV (infectious pancreas necrosis virus); experiment: Preventing IPN virus in fish; format: in vivo, rainbow trout; conditions: 16 ppm water bath 96 hours, 18° C.; for Cumulative number of dying fish: 20 fish
Method: 40 Young (4-6 cm in body length) rainbow trout were sensitised by immersion for 3 hours under aeration in 7.5 liters of a water bath containing IPNV (infectious pancreas necrosis virus) which was prepared by diluting to a 1000-fold volume a cell stock of IPNV (virus titer: 10^6.301 TCID50 /ml) cultured in RTG-2 cells. Immediately after this sensitisation, the fish were divided into two groups each comprising 20 fish and each group was placed in two glass vessels containing 50 liters of water, respectively. The first group of fish was the treated group, while the second group of fish was the control group (untreated).
After the first group of fish was placed in the water-containing vessel, L-hydroxyureidomethyl glycine was dissolved in the water to a concentration of 16 ppm. in this vessel, whereupon the fish were treated during 96 hours with the water bath containing the active compound. Thereafter, the active solution of the bath was replaced by fresh water containing no active compound, and the fish were observed daily to count the number of the young fish which fell dead. The active compound was not added to the water in the second vessel containing the second group of fish (control group), although replacement of water was made in the second vessel. In this way, the effect of L-hydroxyureidomethyl glycine in preventing IPNV infection was estimated. All of the tests were conducted in the water at 18° C.

Influenza virus = format: cell-based
viruses = conditions: cited from earlier work
[15] = HeLa S3 cell, 37° C., 5-7 days, at MDC, 1/2 or 1/4 MDC, vs control
[16] = Vero cell, 37° C., 5-7 days, at MDC, 1/2 or 1/4 MDC, vs control
[17] = L-929 cell, 37° C., 5-7 days, at MDC, 1/2 or 1/4 MDC, vs control

N[C@@H](Cc1ccc(O)cn1)C(=O)O
Acute toxicity LD0 (mice): > 1000 mg/kg
Difference of -log TCID50 /ml, IPNV [1]: 3.75
MCC (in vitro [2]): 500 µg/mL
MCC (in vitro [3]): 500 µg/mL
Percent of inhibition of pock ([4]; 6.2 mg/kg): 56.9%
MDT (difference from control) ([5]; 500 mg per egg): > 80.4
MDT (difference from control) ([5]; 1,000 mg per egg): > 16.8
Difference of -log TCID50 /ml, Herpes virus (Herpes virus): > 2.50
Difference of -log TCID50 /ml, Vaccinia virus [6, 15]: > 1.97
MDT (difference from control) ([7]; 500 mg per egg): 3.2
MDT (difference from control) ([7]; 1,000 mg per egg): 0
Δlog MLD ([7]; in vivo): 1.0
MDT (difference from control) ([8]; 500 mg per egg): > 12.1
MDT (difference from control) ([8]; 1,000 mg per egg): > 19.2
Δlog MLD ([8]; in vivo): 0.5
Per cent of Inhibition (virus multiplication, HA units) ([9]; 50 mg/kg): 52%
Per cent of Inhibition (virus multiplication, HA units) ([9]; 100 mg/kg): 77%
Difference of -log TCID50 /ml, NDV [10, 15]: > 4.00
Difference of -log TCID50 /ml, Influenza virus [11, 16]: 1.00
MDT (difference from control) ([12]; 500 mg per egg): -3.1
MDT (difference from control) ([12]; 1,000 mg per egg): 14.8

NCC(N)C(=O)O (racemic) [DL-Aminomethyl glycine hydrochloride]
MCC (in vitro [2]): > 1000 µg/mL
MCC (in vitro [3]): 3000 µg/mL
Difference of -log TCID50 /ml, VSV [13, 17]: 0.33
Difference of -log TCID50 /ml, Herpes virus (Herpes virus): > 2.50
Difference of -log TCID50 /ml, Vaccinia virus [6, 15]: 0.17
Difference of -log TCID50 /ml, NDV [10, 15]: 1.50
Difference of -log TCID50 /ml, Influenza virus [11, 16]: 1.00

NC(=O)NCC(N)C(=O)O (racemic) [DL-Ureidomethyl glycine]
Difference of -log TCID50 /ml, IPNV [1]: 3.50
MCC (in vitro [2]): > 1000 µg/mL
MCC (in vitro [3]): 2000 µg/mL
Difference of -log TCID50 /ml, NDV [10, 15]: 1.17

NC(Cc1ccc(O)cn1)C(=O)O (racemic) [DL-p-Hydroxypyridylmethyl glycine]
Difference of -log TCID50 /ml, IPNV [1]: 3.50
MCC (in vitro [2]): > 1000 µg/mL
MCC (in vitro [3]): 1000 µg/mL
Difference of -log TCID50 /ml, VSV [13, 17]: > 2.83
Difference of -log TCID50 /ml, NDV [10, 15]: > 3.00
Difference of -log TCID50 /ml, Influenza virus [11, 16]: 0.50

NC(Cc1ccc(F)cc1)C(=O)O (racemic) [DL-p-fluoro-phenyl alanine, reference compound]
Difference of -log TCID50 /ml, IPNV [1]: 0
MCC (in vitro [2]): 125 µg/mL
MCC (in vitro [3]): 250 µg/mL
Difference of -log TCID50 /ml, VSV [13, 17]: 1.00
Difference of -log TCID50 /ml, NDV [10, 15]: 1.17
Difference of -log TCID50 /ml, Influenza virus [11, 16]: 0

NC(CCP(=O)(O)O)C(=O)O (racemic) [DL-phosphonoethyl glycine]
Difference of -log TCID50 /ml, IPNV [1]: 1.30
MCC (in vitro [2]): 250 µg/mL
MCC (in vitro [3]): 4000 µg/mL
Difference of -log TCID50 /ml, VSV [13]: 0.50
Difference of -log TCID50 /ml, Herpes virus (Herpes virus; Hep No. 2 cell, 37° C., 5-7 days, at MDC, 1/2 or 1/4 MDC, vs control): 0.50
Difference of -log TCID50 /ml, Vaccinia virus [6]: 1.17
Difference of -log TCID50 /ml, NDV [10]: 1.50
Difference of -log TCID50 /ml, Influenza virus [11]: 1.00

Cl.NC12CC3CC(CC(C3)C1)C2 [1-Adamantanamine hydrochloride, reference compound]
Difference of -log TCID50 /ml, IPNV [1]: 2.75
MCC (in vitro [2]): 250 µg/mL
MCC (in vitro [3]): 31.2 µg/mL
Per cent of Inhibition (virus multiplication, HA units) ([9]; 100 mg/kg): 76%
Difference of -log TCID50 /ml, Influenza virus [11, 16]: > 2.00

NC(=O)NO [Hydroxyurea, reference compound]
Percent of inhibition of pock ([4]; 50 mg/kg): 42.8%

O=C(O)C1NC2CC21 [L-3,5-Cyclo-2-pyrrolidylcarboxylic acid]
Difference of -log TCID50 /ml, IPNV [1]: 3.50
MCC (in vitro [2]): > 1000 µg/mL
MCC (in vitro [3]): 1000 µg/mL
Difference of -log TCID50 /ml, NDV [10, 15]: 0.17
Difference of -log TCID50 /ml, Influenza virus [11, 16]: 2.00

NC[C@H](N)C(=O)O [L-Aminomethyl glycine hydrochloride]
MCC (in vitro [2]): > 1000 µg/mL
MCC (in vitro [3]): 4000 µg/mL
Difference of -log TCID50 /ml, VSV [13, 17]: 0.67
Difference of -log TCID50 /ml, Herpes virus (Herpes virus): > 2.50
Difference of -log TCID50 /ml, Vaccinia virus [6, 15]: 0.33
Difference of -log TCID50 /ml, NDV [10, 15]: 1.50
Difference of -log TCID50 /ml, Influenza virus [11, 16]: 1.00

O=C1O[C@H]([C@@H](O)CO)C(O)=C1O [L-Ascorbic acid, reference compound]
MCC (in vitro [2]): 125 µg/mL
MCC (in vitro [3]): 2000 µg/mL
Difference of -log TCID50 /ml, VSV [13, 17]: 1.00
Difference of -log TCID50 /ml, NDV [10, 15]: 0.83
Difference of -log TCID50 /ml, Influenza virus [11, 16]: 0

N[C@@H](CNC(=O)NO)C(=O)O [L-Hydroxyureidomethyl glycine]
Acute toxicity LD0 (mice): > 3000 mg/kg
Difference of -log TCID50 /ml, IPNV [1]: 4.00
MCC (in vitro [2]): > 1000 µg/mL
MCC (in vitro [3]): 4000 µg/mL
Percent of inhibition of pock ([4]; 25 mg/kg): 33.7%
Percent of inhibition of pock ([4]; 50 mg/kg): 48.0%
Difference of -log TCID50 /ml, Vaccinia virus [6, 15]: 3.50
Per cent of Inhibition (virus multiplication, HA units) ([9]; 100 mg/kg): 65%
Difference of -log TCID50 /ml, NDV [10, 15]: 0.50
Survival rate ([14]; 67 days, control 10%): 95%
Cumulative number of dying fish ([14]; 28 days, control 0): 0
Cumulative number of dying fish ([14]; 46 days, control 2): 0
Cumulative number of dying fish ([14]; 55 days, control 13): 0
Cumulative number of dying fish ([14]; 67 days, control 18): 1

CP(=O)(O)CC[C@H](N)C(=O)O [L-Methylphosphinoethyl glycine sodium salt]
MCC (in vitro [2]): > 1000 µg/mL
MCC (in vitro [3]): 4000 µg/mL
Difference of -log TCID50 /ml, Influenza virus (calculated from chick hemagglutination titer) (Influenza virus): > 7.3
Difference of -log TCID50 /ml, NDV [10, 15]: 2.00

NC(=O)NC[C@H](N)C(=O)O [L-Ureidomethyl glycine hydrochloride]
Difference of -log TCID50 /ml, IPNV [1]: 3.75
MCC (in vitro [2]): > 1000 µg/mL
MCC (in vitro [3]): 4000 µg/mL
Difference of -log TCID50 /ml, VSV [13, 17]: 0.33
Difference of -log TCID50 /ml, Herpes virus (Herpes virus): 1.50
Difference of -log TCID50 /ml, Vaccinia virus [6, 15]: 1.17
Difference of -log TCID50 /ml, NDV [10, 15]: > 4.00

NC(=O)NC[C@H](N)C(=O)O [L-Ureidomethyl glycine]
MDT (difference from control) ([5]; 500 mg per egg): > 5.2
MDT (difference from control) ([5]; 1,000 mg per egg): -1.6
MDT (difference from control) ([7]; 500 mg per egg): > 13.8
MDT (difference from control) ([7]; 1,000 mg per egg): > 29.8
MDT (difference from control) ([8]; 500 mg per egg): -6.4
MDT (difference from control) ([8]; 1,000 mg per egg): > 4.6
MDT (difference from control) ([12]; 500 mg per egg): 3.2
MDT (difference from control) ([12]; 1,000 mg per egg): -6.4
Δlog MLD ([12]; in vivo): 0

CP(=O)(O)CC[C@H](N)C(=O)O [L-methylphosphinoethyl glycine, L-Methylphosphinoethyl glycine]
MDT (difference from control) ([5]; 250 mg per egg): > 23.2
MDT (difference from control) ([5]; 500 mg per egg): 4.8
MDT (difference from control) ([7]; 250 mg per egg): > 4.8
MDT (difference from control) ([7]; 500 mg per egg): > 27.8
MDT (difference from control) ([8]; 250 mg per egg): > 30.6
MDT (difference from control) ([8]; 500 mg per egg): > 95.6
Per cent of Inhibition (virus multiplication, HA units) ([9]; 50 mg/kg): 67%
MDT (difference from control) ([12]; 250 mg per egg): 2.4
MDT (difference from control) ([12]; 500 mg per egg): > 45.6

COC(=O)[C@@H](N)Cc1ccc(O)cn1 [L-p-Hydroxypyridylmethyl glycine methylester hydrochloride]
Acute toxicity LD0 (mice): > 1000 mg/kg
Difference of -log TCID50 /ml, IPNV [1]: 3.75
MCC (in vitro [2]): 1000 µg/mL
MCC (in vitro [3]): 1500 µg/mL
Difference of -log TCID50 /ml, NDV [10, 15]: 2.00
Difference of -log TCID50 /ml, Influenza virus [11, 16]: 1.00

NC(Cc1ccc(F)cc1)C(=O)O (centres unmarked) [p-fluoro-phenyl alanine]
antiviral activity (reported) (viruses): exhibits an antiviral activity

— patent publication US4216226A (priority 1977, dated 1980)
